Experimental data published in patent US11753432B2, “Compound with analgesic effect for use in prevention and treatment of pain” (Academia Sinica, priority 2017, dated 2023).

Tests used:
[1] = target: T1, NK1R receptor in muscle nociceptors (Mus musculus, UniProt P30548); test: Whole-cell patch clamp recording on muscle nociceptors (outward current); assay type: cell-based
T1 construct: whole-cell patch clamp recording on muscle nociceptors; endogenous in cells; host or cells: muscle nociceptors (primary sensory neurons; preparation not described)
Excerpt: The JMF3737-induced outward current (IJMF3737) can cause nociceptor hyperpolarization and thus counteract the acid-induced depolarization in muscle nociceptors and thus inhibit pain associated with tissue acidosis.

[2] = system: mouse model of fibromyalgia (chronic widespread pain induced by intermittent cold stress); test: Intermittent cold stress (ICS) mouse model of fibromyalgia; mechanical hyperalgesia, hindpaw withdrawal to 0.2-mN von Frey filament; assay type: in vivo, mice (female C57BL/6JNarl); conditions: for tolerance / therapeutic effect on repeated treatment: 1 mg/kg p.o. once a day for 4 days from day 5 after ICS
Method: Female C57BL/6JNarl mice aged 8-12 weeks were purchased from the National Laboratory Animal Center (Taipei, Taiwan). The fibromyalgia model was developed by Ueda's group, in which mice were treated with intermittent cold stress for 2 days (Nishiyori, M.; Ueda, H. Prolonged gabapentin analgesia in an experimental mouse model of fibromyalgia. Mol. Pain 2008, 4, 52). Mice treated with intermittent cold stress developed long-lasting (>2 weeks) mechanical and thermal hyperalgesia. Analgesic effects of compound I-a1 (JMF3737) via i.p. (in 0.5% HPβCD) or p.o. (in 1% HPβCD) routes and compound I-d1 (JMF4413) via i.p. (in 0.5% HPβCD) were tested in these mice 5 days after intermittent cold stress. Mechanical hyperalgesia was assayed by testing the withdrawal response of mouse hindpaws to 0.2-mN von Frey filament stimulation.

[3] = Tolerated dose / safety range in the ICS mouse model; assay type: in vivo
Method: Female C57BL/6JNarl mice aged 8-12 weeks were purchased from the National Laboratory Animal Center (Taipei, Taiwan). […] Mechanical hyperalgesia was assayed by testing the withdrawal response of mouse hindpaws to 0.2-mN von Frey filament stimulation.

Bioavailability = conditions: in vivo; read-out: bioavailability (F)
Solubility = assay type: physicochemical
[4] = p.o. (oral gavage), ICS mouse model

T1 sequence (P30548 whole entry): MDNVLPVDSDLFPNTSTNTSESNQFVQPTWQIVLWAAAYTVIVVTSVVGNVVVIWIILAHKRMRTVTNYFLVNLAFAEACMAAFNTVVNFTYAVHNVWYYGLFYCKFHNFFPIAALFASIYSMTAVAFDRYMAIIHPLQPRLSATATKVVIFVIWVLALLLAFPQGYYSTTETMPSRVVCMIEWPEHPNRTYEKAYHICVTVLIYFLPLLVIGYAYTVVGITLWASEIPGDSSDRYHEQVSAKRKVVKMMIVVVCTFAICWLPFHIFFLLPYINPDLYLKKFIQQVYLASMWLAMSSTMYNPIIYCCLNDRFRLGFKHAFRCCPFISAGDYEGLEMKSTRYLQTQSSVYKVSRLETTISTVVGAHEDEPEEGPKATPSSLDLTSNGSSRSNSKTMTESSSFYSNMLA

With `CCCCNC(=O)OC[C@H]1O[C@@H](n2cnc3c(NCc4ccc(O)cc4)ncnc32)C(O)C1O` (stereo partly drawn) [Compound 8, 5′-O-(n-Butylaminocarbonyl)-N^6-(4-hydroxybenzyl)adenosine] the melting point was 187.4 to 189 °C.

For `O=C(O)CNC(=O)OC[C@H]1O[C@@H](n2cnc3c(NCc4ccc(O)cc4)ncnc32)C(O)C1O` (stereo partly drawn) [I-a1, 5′-O-(Glycine-N-carbonyl)-N^6-(4-hydroxybenzyl)adenosine], the “induced outward current (IJMF3737) inhibited by NK1R antagonist” value ([1]; JMF3737 10 μM with RP67580 10 μM, reversible inhibition) was 15 pA, the “induced outward current (IJMF3737)” value ([1]; JMF3737 10 μM, muscle nociceptors) was 40 pA and the “pain sensitivity to von Frey filament stimulation after repeated treatment” value ([2]; 1 mg/kg oral once a day for 4 days, since day 8, n=4) was “decreased pain sensitivity”. The “acute analgesic effect during repeated treatment” value ([2]; 1 mg/kg oral once a day, day 5 to day 8, n=4) was “shows acute analgesic effect”, the “tolerance / therapeutic effect on repeated treatment” value [2] was “no tolerance but therapeutic effect” and the “tolerance / therapeutic effect on repeated treatment” value ([2]; listed as JMF3737) was “does not cause tolerance”. For the same molecule, the “analgesic effect (in words)” value ([2]; 2 mg (4 μmol)/kg via oral route) was “appreciable analgesic effect”, the “analgesic effect (in words)” value ([2]; ICS mouse model) was “superior analgesic effect to that of T1-11” and the “dose-dependent analgesic effect, effective dose starting from” value (shortened to “dose-dependent analgesic effect”) ([2]; i.p., ICS mouse model) was 1 mg/kg. The “dose-dependent analgesic effect” value [2, 4] was 1 mg/kg, the “analgesic effect compared with T1-11” value ([2]; via oral route) was “better analgesic effect over T1-11” and the “dose without causing appreciable detrimental effect” value ([3]; i.p. and p.o.) was “at least 64 mg/kg”.

For `O=C(O)CNC(=O)NC[C@H]1O[C@@H](n2cnc3c(NCc4ccc(O)cc4)ncnc32)C(O)C1O` (stereo partly drawn) [I-d1, 5′-Deoxy-5′-(glycine-N-amido)-N^6-(4-hydroxybenzyl)adenosine], the “analgesic effect (in words)” value ([2]; 64 mg/kg via i.p. route, n=2) was “good analgesic effect”, the “analgesic effect (in words)” value ([2]; ICS mouse model) was “excellent analgesic effect” and the “dose without causing appreciable detrimental effect” value ([3]; i.p.) was 64 mg/kg.

In the case of `OC[C@H]1O[C@@H](n2cnc3c(NCc4ccc(O)cc4)ncnc32)[C@H](O)[C@@H]1O` [T1-11, N^6-(4-hydroxybenzyl)adenosine, reference compound], the “analgesic effect (in words)” value ([2]; ICS mouse model) was “excellent analgesic effect”, the “dose-dependent analgesic effect” value ([2]; i.p., ICS mouse model) was 0.03 mg/kg and the “dose-dependent analgesic effect” value [2, 4] was 8 mg/kg. The bioavailability (Bioavailability) was about 5% and the “solubility in dimethylsulfoxide (DMSO)” value (Solubility) was “good solubility”.
